Source: US12433908B2, “Use of nicotinamide riboside, nicotinic acid riboside, and nicotinamide mononucleotide, reduced nicotinyl compounds, and nicotinoyl compound derivatives in infant formula for healthy development” (ChromaDex, Inc., priority 2016, dated 2025)

Experiments:
[1] = mice on a high-fat diet supplemented with NR; cited from earlier work
[2] = Fecal and activity scores of piglets given NR solution; format: in vivo, piglets (Yorkshire/Hampshire crossbred); conditions: for Activity Score: scale 4=alert, attentive to 1=very lethargic; for Fecal Score: scale 4=normal (solid) to 1=severe diarrhea (liquid)
Text: Sixteen (n=16) Yorkshire/Hampshire crossbred piglets were obtained from the University of California, Davis Swine Teaching and Research Center and received on lactation day (“LD”) 14. Prior to arrive, the piglets were processed by the suppler between 1-3 days of age by administration of iron and an antibiotic ([…] for swine) as is common practice at the University of California, Davis Swine Facility. It is not common practice at the University of California, Davis Swine Facility to give a second dose of iron and antibiotics unless it becomes necessary. The piglets were from two litters (litters 15 and 17), weaned at 17 days of age, and randomly placed into one of two groups balanced for litter, sex, and weight. The animals were not acclimated to the facility at arrival and were subsequently acclimated to the test diet administration system. The piglets were weaned into a temperature-controlled room (approximately 27-29° C.) that contained 10 adjacent pens. The piglets were group-housed in the nursery room at the Swine Facility, which is an enclosed room with access restricted to trained personnel. The two groups were separated by one pen containing piglets of similar age. Each morning enough nicotinamide riboside (NR, I) in water solution was prepared for that day's dose administration according to the dose preparation protocol. At least 5 mL of prepared dose was reserved and immediately frozen after preparation each day for analysis of nicotinamide riboside (NR, I) for the purpose of confirming stability of the dose material. The doses were stored at refrigeration temperature while not in use. Nicotinamide riboside (NR, I) was dosed once per day in the morning and at the same time each day. Piglets in the control group received the same volume of plain water and were dosed on the same schedule. Starting on Day 1, animals in the nicotinamide riboside (NR, I) group were dosed once daily (in the morning) with 277 mg nicotinamide riboside (NR, I) per pig resuspended in water for seven days. After one week, animals were dosed once daily with 342 mg nicotinamide riboside (NR, I) per pig delivered in 2.5 mL for seven days. For Days 1 and 2, the nicotinamide riboside (NR, I) solution was prepared by resuspending 2770 mg nicotinamide riboside (NR, I) in 50 mL water, and 5 mL of this solution was delivered to each pig by squirting it into the back of the mouth using a 10 mL syringe with a piece of tubing attached to the end. To reduce the volume to more efficiently deliver the nicotinamide riboside (NR, I) solution, the 2770 mg was resuspended in 25 mL water and 2.5 mL of the solution was squirted into the back of the mouth of each pig using a 3 mL syringe for Days 3-7. For Days 8-14, 3420 mg nicotinamide riboside (NR, I) was resuspended in 25 mL water and 2.5 mL of this solution was delivered to each pig. Each day prior to dosing, 2.5 mL of the nicotinamide riboside (NR, I) (5 mL on Days 1 and 2) were placed into a separate tube and frozen. All animals were weighed at weaning (baseline) and after one and two weeks of nicotinamide riboside (NR, I) supplementation. Fecal and activity scores were recorded daily using the scales listed below. Weights and fecal scores were analyzed using a two-factor repeated measures ANOVA (mixed-model ANOVA) with p values<0.05 considered significant. The fecal consistency scale used is as follows: 4=normal (solid); 3=soft feces (semi-solid); 2=mild diarrhea (semi liquid); 1=severe diarrhea (liquid).

[3] = Body weight of early-weaned piglets given NR solution; format: in vivo, piglets (Yorkshire/Hampshire crossbred)
Text: Sixteen (n=16) Yorkshire/Hampshire crossbred piglets were obtained from the University of California, Davis Swine Teaching and Research Center and received on lactation day (“LD”) 14. Prior to arrive, the piglets were processed by the suppler between 1-3 days of age by administration of iron and an antibiotic (Excede for swine) as is common practice at the University of California, Davis Swine Facility. It is not common practice at the University of California, Davis Swine Facility to give a second dose of iron and antibiotics unless it becomes necessary.
The piglets were from two litters (litters 15 and 17), weaned at 17 days of age, and randomly placed into one of two groups balanced for litter, sex, and weight. The animals were not acclimated to the facility at arrival and were subsequently acclimated to the test diet administration system. The piglets were weaned into a temperature-controlled room (approximately 27-29° C.) that contained 10 adjacent pens. The piglets were group-housed in the nursery room at the Swine Facility, which is an enclosed room with access restricted to trained personnel. The two groups were separated by one pen containing piglets of similar age.
Each morning enough nicotinamide riboside (NR, I) in water solution was prepared for that day's dose administration according to the dose preparation protocol. At least 5 mL of prepared dose was reserved and immediately frozen after preparation each day for analysis of nicotinamide riboside (NR, I) for the purpose of confirming stability of the dose material. The doses were stored at refrigeration temperature while not in use. Nicotinamide riboside (NR, I) was dosed once per day in the morning and at the same time each day. Piglets in the control group received the same volume of plain water and were dosed on the same schedule.
The daily amount of nicotinamide riboside (NR, I) approximated the dose (33 mg/kg) used in human investigations of efficacy in areas of mitochondrial dysfunction converted to piglet equivalent dose using the body surface area method. See A. B. Nair & S. Jacob, A simple practice guide for dose conversion between animals and human, 7 J. BASIC CLIN. PHARMA 27 (2016), incorporated by reference herein in its entirety.
Starting on Day 1, animals in the nicotinamide riboside (NR, I) group were dosed once daily (in the morning) with 277 mg nicotinamide riboside (NR, I) per pig resuspended in water for seven days. After one week, animals were dosed once daily with 342 mg nicotinamide riboside (NR, I) per pig delivered in 2.5 mL for seven days. For Days 1 and 2, the nicotinamide riboside (NR, I) solution was prepared by resuspending 2770 mg nicotinamide riboside (NR, I) in 50 mL water, and 5 mL of this solution was delivered to each pig by squirting it into the back of the mouth using a 10 mL syringe with a piece of tubing attached to the end. To reduce the volume to more efficiently deliver the nicotinamide riboside (NR, I) solution, the 2770 mg was resuspended in 25 mL water and 2.5 mL of the solution was squirted into the back of the mouth of each pig using a 3 mL syringe for Days 3-7. […]
All animals were weighed at weaning (baseline) and after one and two weeks of nicotinamide riboside (NR, I) supplementation. Fecal and activity scores were recorded daily using the scales listed below. Weights and fecal scores were analyzed using a two-factor repeated measures ANOVA (mixed-model ANOVA) with p values<0.05 considered significant. […]

[4] = Wk 1, 277 mg/pig once daily oral
[5] = Wk 2, 342 mg/pig once daily oral Days 8-14

## NC(=O)c1ccc[n+]([C@@H]2O[C@H](CO)[C@@H](O)[C@H]2O)c1 [NR, Nicotinamide riboside]
[1]
  less weight gained on a high-fat diet: 40%
[2]; 2-week intervention
  fecal scores, NR vs. control: not statistically different
[2]; Baseline, before dosing
  Activity Score: 4.0
  Fecal Score: 3.78 ± 0.39
[2]; [4]
  Activity Score: 4.0
  Fecal Score: 2.93 ± 0.67
[2]; [5]
  Activity Score: 4.0
  Fecal Score: 2.90 ± 0.60
[3]; 2-week feeding of NR
  health, nutritional quality, normal growth of piglets weaned 7 days early: did not negatively impact the health, nutritional quality, or normal growth
[3]; Baseline, before dosing
  Weight: 7.77 ± 1.33 kg
[3]; Week 1 or Week 2 of treatment
  body weight, NR vs. control: no differences in body weight
[3]; [4]
  Weight: 8.33 ± 1.56 kg
[3]; [5]
  Weight: 9.39 ± 1.61 kg
